Assay results taken from patent US7232912B2, “Indazole compounds, pharmaceutical compositions, and methods for mediating or inhibiting cell proliferation” (Agouron Pharmaceuticals, Inc., priority 2000, dated 2007).

What was measured:
Assay type in all cases: biochemical
human CHK1 = biological target: T1, human CHK1 (Homo sapiens, UniProt O14757); assay: CHK1 Assay (coupled spectrophotometric)
T1 construct: C-terminally His-tagged full-length human CHK1 (FL-CHK1) was expressed using the baculovirus/insect cell system; made in house; host or cells: baculovirus/insect cells
T1 sequence (O14757 1-476): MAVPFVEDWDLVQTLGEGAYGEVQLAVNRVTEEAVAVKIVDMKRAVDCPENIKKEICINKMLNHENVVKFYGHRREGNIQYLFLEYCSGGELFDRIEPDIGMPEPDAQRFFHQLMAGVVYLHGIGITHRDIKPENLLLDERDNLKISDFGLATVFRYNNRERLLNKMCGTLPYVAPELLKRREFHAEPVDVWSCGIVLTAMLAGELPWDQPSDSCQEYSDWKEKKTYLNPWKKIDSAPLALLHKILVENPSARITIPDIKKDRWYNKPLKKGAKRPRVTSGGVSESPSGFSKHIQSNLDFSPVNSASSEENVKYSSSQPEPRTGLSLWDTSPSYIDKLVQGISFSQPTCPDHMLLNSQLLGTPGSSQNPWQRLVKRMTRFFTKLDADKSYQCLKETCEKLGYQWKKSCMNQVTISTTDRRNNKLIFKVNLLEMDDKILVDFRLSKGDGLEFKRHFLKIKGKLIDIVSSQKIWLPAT
Source text: C-terminally His-tagged full-length human CHK1 (FL-CHK1) was expressed using the baculovirus/insect cell system. It contains 6 histidine residues (6×His-tag) at the C-terminus of the 476 amino acid human CHK1. The protein was purified by conventional chromatographic techniques.
The production of ADP from ATP that accompanies phosphoryl transfer to the synthetic substrate peptide Syntide-2 ([…]) was coupled to oxidation of NADH using phosphoenolpyruvate (PEP) through the actions of pyruvate kinase (PK) and lactic dehydrogenase (LDH). The oxidation of NADH was monitored by following the decrease of absorbance at 340 nm (ε340=6.22 cm^−1 mM^−1) using a HP8452 spectrophotometer. Typical reaction solutions contained: […]; 0.15 mM NADH; 28 units of LDH/ml; 16 units of PK/ml; 3 mM DTT; 0.125 mM Syntide-2; 0.15 mM ATP; 25 mM MgCl2 in 50 mM TRIS, pH 7.5; and 400 mM NaCl. Assays were initiated with 10 nM of FL-CHK1. Ki values were determined by measuring initial enzyme activity in the presence of varying concentrations of test compounds. The data were analyzed using Enzyme Kinetic and Kaleidagraph software.

LCK tyrosine kinase = biological target: T2, LCK tyrosine kinase (Homo sapiens, UniProt P06239, C224D/P223M); assay: Inhibition of phosphorylated LCK tyrosine kinase activity; conditions: read-out: LCK % Inhib. at 1 μM
T2 construct: starting from amino acid 223 to the end of the protein at amino acid 509; made in house; host or cells: insect cells
Method: Inhibition of Phosphorylated FGF Receptor and LCK Tyrosine Kinase Activity
Cloning, expression and purification of the cytosolic domain of FGFR1 tyrosine kinase (amino acids 456–766) containing three amino acid substitutions (L457V, C488A, and C584S) were conducted as previously described (Mohammadi, M., Schlessinger, J., & Hubbard, S. R. (1996) Cell 86, 577–587). This domain was expressed in Sf9 insect cells using a baculovirus expression vector, and protein was purified using conventional techniques. The LCK tyrosine kinase was expressed in insect cells as an N-terminal deletion starting from amino acid 223 to the end of the protein at amino acid 509. The N-terminus of the protein also had two amino acid substitutions, P223M and C 224D. Kinases were purified using conventional chromatographic methods.
Tyrosine kinase activity was measured using a coupled, continuous spectrophotometric assay, in which production of phosphorylated poly(Glu, Tyr; 4:1) substrate and ADP is coupled to the pyruvate kinase-catalyzed transfer of a phosphate from phosphoenolpyruvate to ADP, with generation of pyruvate and regeneration of ATP. Pyruvate production is in turn coupled to the lactate dehydrogenase-catalyzed reduction of pyruvate to form lactate, with concomitant conversion of NADH to NAD+. Loss of NADH is monitored by measuring absorbance at 340 nm (see e.g., Technikova-Dobrova et al., “Spectrophotometric determination of functional characteristics of protein kinases with coupled enzymatic assay,” FEBS Letters, vol. 292 (1991), pp. 69–72). Enzyme activity was measured in the presence of 200 mM HEPES (pH 7.5), 2 mM phosphoenolpyruvate, 0.3 mM NADH, 20 mM MgCl2, 100 μM ATP, 5 mM DTT, 5.1 or 25 mM poly (Glu,Tyr) 4:1 for P-FGF or P-LCK assays, respectively, and 15 units/mL each of pyruvate kinase and lactate dehydrogenase. Phosphorylated FGF receptor kinase was present at 100 nM and phosphorylated LCK kinase was present at 50 nM. Assays were performed under initial rate conditions at 37° C., and rates were corrected for any background rate measured in the absence of enzyme. Percent inhibition was calculated relative to control enzyme assayed in the presence of 2% (v/v) DMSO.

FAK = assay: Coupled Spectrophotometric (FAK) Assay
Method: Coupled Spectrophotometric (FAK) Assay
Tyrosine kinase assays were monitored using a Beckman DU 650 Spectrophotometer. Production of ADP was coupled to oxidation of NADH using phosphoenolpyruvate (PEP) through the actions of pyruvate kinase (PK) and lactic dehydrogenase (LDH). The oxidation of NADH was monitored by following the decrease in absorbance at 340 nm (ε340=6.22 cm^−1 mM^−1). Typical reaction solutions contained: 1 mM PEP, 250 μM NADH, 50 units of LDH/mL, 20 units of PK/mL, 5 mM DTT, in 200 mM Hepes, pH 7.5 and varying concentrations of poly(E4Y1), ATP and MgCl2. Assays were initiated with 40 nM of […].

T2 sequence (P06239 223-509 P223M/C224D): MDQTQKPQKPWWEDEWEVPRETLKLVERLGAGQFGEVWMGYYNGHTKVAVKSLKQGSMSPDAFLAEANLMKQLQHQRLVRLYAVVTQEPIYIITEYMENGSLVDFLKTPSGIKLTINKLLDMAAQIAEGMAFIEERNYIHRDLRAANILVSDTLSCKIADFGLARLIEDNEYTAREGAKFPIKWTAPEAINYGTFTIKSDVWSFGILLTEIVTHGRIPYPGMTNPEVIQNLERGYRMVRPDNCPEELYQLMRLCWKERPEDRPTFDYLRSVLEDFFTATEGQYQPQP

inhibition at 1 µM (LCK tyrosine kinase)	Structure (SMILES)	Ki (human CHK1)	other results
11%	Fc1ccccc1-c1ccc2[nH]nc(-c3nc4ccccc4[nH]3)c2c1 [Example 6, 3-(1H-Benzoimidazol-2-yl)-5-(2-fluorophenyl)-1H-Indazole]	–	inhibition at 20 µM (human CHK1): 80%
–	c1ccc2[nH]c(-c3n[nH]c4ccc(-c5cccc6[nH]ccc56)cc34)nc2c1 [Example 48, 3-(1H-Benzoimidazol-2-yl)-5-(1H-indol-4-yl)-1H-indazole]	7.82 µM	–
21%	Cc1c(O)cccc1-c1ccc2[nH]nc(-c3nc4ccccc4[nH]3)c2c1 [10′, 3-[3-(1H-Benzoimidazol-2-yl)-1H-indazol-5-yl]-2-methyl-phenol]	–	inhibition at 10 µM (human CHK1; read-out: CHK1 % inhibition @ 10 μM, at 10 μM): 5%
17%	Cc1c(O)cccc1-c1ccc2[nH]nc(/C=C/c3ccccc3)c2c1 [15′, 2-Methyl-3-[3-((E)-styryl)-1H-indazol-5-yl]-phenol]	–	inhibition at 1 µM (human CHK1; read-out: CHK1 % inhibition at 1 μM): 16%
–	C(=C\c1n[nH]c2ccc(-c3cncc4ccccc34)cc12)/c1ccccc1 [Example 16]	81 µM	FAK % Inhibition at 1 μM (FAK): 47%
